The results in this text go back to patent US9610294B2, “Methods and compositions for the treatment of fluid accumulation in and/or under the retina” (UNIVERSITE PARIS DESCARTES, priority 2010, dated 2017).

The test system of one test is ENaC-α. Description: ENaC-α expression (real-time PCR, western blot) in rat RMG primary cultures and retinal explants. The format is cell-based. Here is the method:
(§1) Rat RMG cells were obtained as described (deKozak, Y., Naud, M. C., Bellot, J., Faure, J. P., and Hicks, D. (1994) Differential tumor necrosis factor expression by resident retinal cells from experimental uveitis-susceptible and -resistant rat strains. J Neuroimmunol 55, 1-9). Briefly, rats at postnatal (PN) day 17 (when RMG cells are mature) were sacrificed and eyes enucleated. Intact eyeballs were maintained in DMEM overnight at room temperature in the dark, and then incubated 45 min with 2 mg/ml trypsin/collagenase I at 37° C. The neural retinas were separated from the lens and vitreous, cut into small fragments and plated in Petri dishes containing DMEM supplemented with 10% FCS, 100 units/ml penicillin, 100 µg/ml streptomycin, and 0.2% amphotericin B. Cultures were maintained at 37° C. in a humidified atmosphere containing 5% CO2. After 5 to 6 days, the cultures were washed extensively with medium so that only a strongly adherent flat cell population remained.
(§2) Müller cells were seeded in 6-well tissue culture plates (Becton Dickinson, Le Pont de Claix, France). Rat PN17 RMG cells were maintained in their initial Petri dishes. Sub confluent (80%) cells were incubated in media supplemented with 10% steroid-free (charcoal treated) FCS for 24 hrs. Corticosteroid (Sigma-Aldrich, Saint Quentin Fallavier, France) treatments were then applied respectively for a further 24 hrs: 10 nM aldosterone, 10 nM aldosterone plus 1).IM RU38486 (GR-specific antagonist), 10 nM aldosterone plus 1 µM RU26752 (MR-specific antagonist) or 1 µM dexamethasone. The steroids were previously dissolved in 2% steroid-free FCS media containing 0.1% ethanol. Control cells were treated with 0.1% ethanol in media.
(§3) After enucleation, rat retinas were isolated immediately under aseptic conditions and cut into 4 pieces. They were then transferred onto a Cyclopore 0.2).Im polycarbonate membrane (Whatman, Maidstone, England), and flatmounted with the vitreal side up. The support membranes were placed in 6-well tissue culture plates containing 2 ml DMEM supplemented with 10% steroid-free FCS, 1% penicillin-streptomycin and 0.1% amphotericin B. Explants were treated with corticosteroids as described for cultured cells. Similarly, the dose-dependent effect of aldosterone (0.1-100 nM) was analyzed on retinal explants in separate experiments.
(§4) Total RNA was isolated from the treated RMG cells and retinal explants using RNeasy Mini Kit (Qiagen, Courtaboeuf, France). First-strand cDNA was synthesized after DNase I (Qiagen) treatment using random primers (Invitrogen) and superscript II reverse transcriptase (Invitrogen). Transcript levels of ENaC-a, Kir4.1 and AQP4 were analyzed by real-time PCR performed in 7500 Real-Time PCR System (Applied Biosystems, Foster City, Calif., USA) with either TaqMan® (Applied Biosystems) or SYBR® Green (Invitrogen, Cergy Pontoise, France) detection. The 18S was used as internal control.
(§5) Retinal explants were homogenized in Np40 buffer in the presence of protease inhibitors. The protein concentration was determined by the Bradford method. Equal amounts of protein (12 .ug) were separated on Novex® 4%-12% Tris-Glycine gel (Invitrogen), transferred to nitrocellulose, and the blots were incubated with primary antibodies at 4° C. overnight. The membranes were washed, incubated with horse radish peroxidase conjugated goat anti-rabbit IgG (1:3000, Vector, AbCys, Paris, France) for 1 hr at room temperature, and developed using ECL Plus western blotting detection reagents (GE healthcare, Orsay, France). The j3-actin was used as internal control. The following primary antibodies were used: rabbit anti-alpha ENaC (1:500, Abcam, Cambridge, Mass., USA), rabbit anti-Kir4.1 (1:400, Alomone Labs, Jerusalem, Israel), rabbit anti-AQP4 (1:750, Millipore, St Quentin en Yvelines, France) and rabbit anti-j3-actin (1:1000, Abcam)
On the technique in general: In qPCR the cycle at which signal appears reflects the starting amount.

A further test deals with AQP4. Description: AQP4 expression (real-time PCR, western blot) in rat RMG primary cultures and retinal explants. The format is cell-based. Here is the method: as §1, §2, §3, §4, §5
Another test deals with retina. The experiment in a line: Intraocular injection in Brown Norway rats (gain of function mutation in the MR gene): CSCR-like retinal pathology. The class given is in vivo. Particulars: FIGS. 1 and 2.
Another test relates to GFAP. Description: GFAP immunostaining of retinas from aldosterone-injected eyes (glial activation). The format is in vivo, Lewis rats. Particulars: intravitreous injection, vs sham-injected retinas. The method, then: Anesthesia of rats was induced by intramuscular injection of ketamine (100 mg/kg, Virbac, Carros, France) and chlorpromazine (0.65 mg/kg, LARGACTIL®, Sanofi Aventis, Livron sur Drome, France). Intravitreous injections were performed using microfine (300 μl) syringes with 30 G needles under topical anesthesia (tetracaine 1%, Aldrich, Lyon, France). Rat eyes were injected with 5 μl aldosterone diluted in 0.9% saline to obtain a concentration of 200 nM for injection, corresponding to a final concentration of 20 nM in the vitreous. Control rat eyes were injected with 5 μl saline. Twenty-four hrs after injection, rats were sacrificed. Eyes were then removed for retinal flat mounting, immunohistochemistry and morphological analysis respectively.
Eyes were fixed for 15 min in 4% paraformaldehyde (PFA, LADD, Inland Europe, Conflans-sur-Lanterne, France). After washing, retinas were isolated, cut by 4 orthogonal incisions and post-fixed with acetone 100% at −20° C. for 15 min. They were then rehydrated with phosphate-buffered saline (PBS) containing 1% Triton X-I00, and incubated with a polyclonal rabbit antibody against AQP4 (1:100) or a polyclonal rabbit antibody against glial fibrillary acidic protein (GF AP, 1:100, Dako, Trappes, France) at room temperature under stirring overnight. […]

A further test deals with Kir4.1. The experiment in a line: Kir4.1 expression (real-time PCR, western blot) in rat RMG primary cultures and retinal explants. The format is cell-based. The method, then: as §1, §2, §3, §4, §5
Setting [1] is: 24 hrs treatment, rat RMG primary cultures and retinal explants.
Setting [2] is: dose-dependent effect, retinal explants.

Entries after “also recorded” stand apart in the source; their conditions may differ.

Consider `C[C@]12CCC(=O)C=C1CC[C@@H]1[C@@H]2[C@@H](O)C[C@]2(C=O)[C@@H](C(=O)CO)CC[C@@H]12` [aldosterone], for which the “ENaC-α subunit mRNA expression” value in the test on ENaC-α (setting [1]) is listed as “significant up-regulation”. The “dose dependence of ENaC-α transcripts” value in the test on ENaC-α (aldosterone 0.1-100 nM, retinal explants) is reported as “dose dependent manner”. In addition, the “expression of sodium channel ENaC-a” value in the test with ENaC-α (aldosterone 24 hrs) stood at 6.5 fold. Moreover, the “ENaC-α expression at the protein level” value in the test on ENaC-α (western blot, retinal explants) is “up-regulated”. Also, the “AQP4 mRNA expression” value in the test on AQP4 (24 hrs treatment, RMG primary cultures or retinal explants) was “increase”. For the same molecule, the “aquaporin 4 (AQP4) up-regulation” value in the test with AQP4 (aldosterone 24 hrs) came to 2.9 fold. Moreover, the “aldosterone concentration at which increase in AQP4 mRNA is saturated” value in the test with AQP4 (setting [2]) came out at 10 nM. Moreover, the “expression of aquaporin 4 (AQP4)” value in the test with AQP4 (normal rat, 24 hours exposure, low aldosterone dose (1-10 nM)) was “enhances the expression”. Besides, in the test on AQP4 (western blot), the “AQP4 expression at the protein level” value was “increases”. Moreover, in the test on retina, the “retinal pathology after intraocular injection” value was “develop a retinal pathology similar to CSCR; also recorded: vasodilation of choroid vessels, rupture of the junction between RPE cells, swallowing of the photoreceptor segments and sub retinal fluid accumulation; also recorded: develop a retinal pathology very close to CSCR”. Besides, the “glial (RMG) activation, GFAP distribution” value in the test with GFAP is given as “enhances glial activation; also recorded: strong activation of RMG”. The “Kir4.1 expression (transcripts)” value in the test on Kir4.1 (setting [1]) is listed as “up-regulate”. For the same molecule, the “expression of potassium channel Kir4.1” value in the test on Kir4.1 (aldosterone 24 hrs) was 1.9 fold. Besides, the “aldosterone concentration at which increase in Kir4.1 transcripts is fully saturated” value with Kir4.1 (setting [2]) stood at 10 nM. Further, the “Kir4.1 expression at the protein level” value in the test on Kir4.1 (western blot) is listed as “up-regulated”.
